Assay results as given in US20120295920A1, “5-AMINO-4-HYDROXYPENTOYL AMIDES” (priority 2009, published 2012).
Where two headings read alike, the source gives them in different places.

Tests used:
mock-infected MT4 cells = assay: General toxicity assay on mock-infected MT4 cells with CMV-EGFP reporter (CC50); assay type: cell-based
HIV-1 IIIB = assay: 50% HS-Rezazurin: antiviral assay in the presence of 50% human serum, MT-4 cells, resazurin cell viability; assay type: cell-based
Experimental: For the Antiviral assay in the presence of 50% human serum MT-4 cells were infected with HIV-1 IIIB at a MOI of 0.001 to 0.01 CCID50/cell in RPMI1640 medium. Following 1 h of incubation, cells were washed and plated into a 96-well plate containing serial dilutions of compound in the presence of 10% fetal calf serum (FCS), or 50% human serum. After 4 days incubation, the EC50 in the presence of 50% human serum was determined by a cell viability assay using resazurin.
The last column lists the results for the wild-type strain IIB in the presence of 50% human serum MT-4 cells.

HIV-1 wild-type strain = assay: General antiviral assay, cell-based virus replication in MT4-LTR-EGFP cells, wild-type strain
Experimental: (§1) MT4-LTR-EGFP cells were obtained by transfecting MT4 cells with a selectable construct encompassing the sequences coding for the HIV long terminal repeat (LTR) as a promoter for the expression of enhanced green fluorescent protein (EGFP) and subsequent selection of permanently transfected cells.
(§2) The antiviral activity on different HIV-1 strains, was determined in a cell-based virus replication assay. Here MT4-LTR-EGFP cells (150,000 cells/ml) are infected (multiplicity of infection [MOI] of 0.0025) in the presence or absence of different inhibitor concentrations. Two methodologies for read-out were used, either quantification of GFP-fluoresence on day 3 post-infection, or quantification of cell-viability using rezazurin (as described by Fields, R. D., and M. V. Lancaster (1993) Am. Biotechnol. Lab. 11:48-50) on day 4 post infection.

[1] = test system: HIV-1 Strain C (G048G/V, V082A); assay: microbe, parasite or virus in culture; assay type: cell-based; conditions: clinical isolate Strain C; read-out: C EC50
Experimental: as §1, §2
(§3) In the following Table, Strains A, B, and C are clinical isolates that include the following protease inhibitor resistance mutations in the protease domain (background mutations are not mentioned).

[2] = test system: HIV-1 Strain B (M046I, I050V); assay: microbe, parasite or virus in culture; assay type: cell-based; conditions: clinical isolate Strain B; read-out: B EC50
Experimental: as §1, §2, §3

[3] = test system: HIV-1 Strain A (M046I, I084V); assay: microbe, parasite or virus in culture; assay type: cell-based; conditions: clinical isolate Strain A; read-out: A EC50
Experimental: as §1, §2, §3

[4] = MT4LTR cells, read-out: TOX-MT4LTR (CC50)
[5] = mock-infected MT4 cells with CMV-EGFP reporter, read-out: TOX-MT4CMV (CC50)
[6] = wild-type strain IIIB, MT4-LTR-EGFP cells

SMILES	CC50 (mock-infected MT4 cells; [4]) [nM]	CC50 (mock-infected MT4 cells; [5]) [nM]	EC50 (HIV-1 IIIB) [nM]	EC50 (HIV-1 wild-type strain; [6]) [nM]	EC50 [1] [nM]	EC50 [2] [nM]	EC50 [3] [nM]	EC50 (HIV-1 wild-type strain; read-out: HIV-IIIB EC50) [nM]
COC(=O)N[C@H](C(=O)N[C@@H](Cc1ccccc1)[C@@H](O)CN(Cc1ccc(-c2ccccn2)cc1)NC(=O)[C@@H](NC(=O)OC)C(C)(C)C)C(C)(C)C [ATV]	> 32000	26000	16	7.6	62	3.3	59	
COC(=O)NC(C(=O)NC(Cc1ccc(-c2ccnc(C)c2)cc1)C(O)CC(Cc1cccc(Cl)c1)C(=O)NC1c2ccccc2OCC1O)C(C)(C)C (stereo not shown) [Compound 1]		> 32000	39.3		3.7	4.8	5.7	7.7
COC(=O)NC(C(=O)NC(Cc1ccc(-c2ccc(N(C)C)nc2)cc1)C(O)CC(Cc1cccc(Cl)c1)C(=O)NC1c2ccccc2OCC1O)C(C)(C)C (stereo not shown) [Compound 2]		> 32000	19.7	3	1.1	2.2	3.3	
COC(=O)NC(C(=O)NC(Cc1ccc(-c2ccc(OC)nc2)cc1)C(O)CC(Cc1cccc(Cl)c1)C(=O)NC1c2ccccc2OCC1O)C(C)(C)C (stereo not shown) [Compound 3]		> 32000	13.6	2.6	2.4	3.5	2.3	
COC(=O)NC(C(=O)NC(Cc1ccc(-c2ccc(N(C)C)nc2)cc1)C(O)CC(Cc1cccc(Cl)c1)C(=O)NC1c2cc(Cl)ccc2OCC1O)C(C)(C)C (stereo not shown) [Compound 5]		> 32000	28.6	4.7	5.1	4.4	5.4	
COC(=O)NC(C(=O)NC(Cc1ccc(-c2cnc(C)s2)cc1)C(O)CC(Cc1cccc(Cl)c1)C(=O)NC1c2cc(Cl)ccc2OCC1O)C(C)(C)C (stereo not shown) [Compound 6]		> 32000	15.2	3.2	1.5	2.7	3.9	
COC(=O)NC(C(=O)NC(Cc1ccc(-c2ccc(N(C)C)nc2)cc1)C(O)CC(Cc1ccccc1F)C(=O)NC1c2ccccc2OCC1O)C(C)(C)C (stereo not shown) [Compound 7]	> 49000	> 32000	10.4	1.6	0.8	0.9	1.5	
COC(=O)NC(C(=O)NC(Cc1ccc(-c2ccc(N(C)C)nc2)cc1)C(O)CC(Cc1ccccc1F)C(=O)NC1c2cc(Cl)ccc2OCC1O)C(C)(C)C (stereo not shown) [Compound 8]	> 49000	> 32000	12.4	1.8	1	1.2	2	
CN(C)c1ccc(-c2ccc(CC(NC(=O)C(NC(=O)CN3CCCC3)C(C)(C)C)C(O)CC(Cc3cccc(Cl)c3)C(=O)NC3c4cc(F)ccc4OCC3O)cc2)cn1 (stereo not shown) [Compound 9]		> 27000	31.7	8.8	3.7	6.6		
COC(=O)NC(C(=O)NC(Cc1ccc(-c2ccc(N(C)C)nc2)cc1)C(O)CC(Cc1ccccc1F)C(=O)NC1c2cc(F)cc(F)c2OCC1O)C(C)(C)C (stereo not shown) [Compound 10]		> 32000	20.1	3.2	1.7	2.5	4	
COC(=O)NC(C(=O)NC(Cc1ccc(-c2cnc(C)s2)cc1)C(O)CC(Cc1ccccc1F)C(=O)NC1c2cc(Cl)ccc2OCC1O)C(C)(C)C (stereo not shown) [Compound 11]		> 32000	22.4	4.2	2.1	3.5	3.9	
COC(=O)NC(C(=O)NC(Cc1ccc(-c2cc(C)nc(C)c2)cc1)C(O)CC(Cc1ccccc1F)C(=O)NC1c2cc(Cl)ccc2OCC1O)C(C)(C)C (stereo not shown) [Compound 12]		> 32000	35.7	4	2.2	3	3.7	
COC(=O)NC(C(=O)NC(Cc1ccc(-c2ccc(N(C)C)nc2)cc1)C(O)CC(Cc1cccc(Cl)c1)C(=O)NC1c2cc(F)ccc2OCC1O)C(C)(C)C (stereo not shown) [Compound 13]		> 32000	22.6	4.7	2.4	3	4.6	
CCc1ncc(-c2ccc(CC(NC(=O)C(NC(=O)OC)C(C)(C)C)C(O)CC(Cc3ccccc3F)C(=O)NC3c4cc(Cl)ccc4OCC3O)cc2)s1 (stereo not shown) [Compound 14]		> 32000	24.6	3	1.3	2.1	3.5	
COC(=O)NC(C(=O)NC(Cc1ccc(-c2csc(N(C)C)n2)cc1)C(O)CC(Cc1ccccc1F)C(=O)NC1c2cc(Cl)ccc2OCC1O)C(C)(C)C (stereo not shown) [Compound 20]		6000	11.2	3.1	2.7		7.4	
COC(=O)N[C@H](C(=O)N[C@@H](Cc1ccc(-c2cncc(OC)n2)cc1)[C@@H](O)C[C@@H](Cc1ccccc1F)C(=O)N[C@H]1c2cc(Cl)ccc2OC[C@H]1O)C(C)(C)C [Compound 24]		> 32000	16.1	3.3	1.7	1.9		
CCOc1ccc(-c2ccc(C[C@H](NC(=O)[C@@H](NC(=O)OC)C(C)(C)C)[C@@H](O)C[C@@H](Cc3ccccc3F)C(=O)N[C@H]3c4cc(Cl)ccc4OC[C@H]3O)cc2)cn1 [Compound 44]	> 32000		13.7	3.2	2	2.2		
COCCOC(=O)N[C@H](C(=O)N[C@@H](Cc1ccc(-c2ccc(OC)nc2)cc1)[C@@H](O)C[C@@H](Cc1ccccc1Cl)C(=O)N[C@H]1c2cc(F)ccc2OC[C@H]1O)C(C)(C)C [Compound 57]	> 32000		8.7	1.9	0.8	0.9		
COC(=O)N[C@H](C(=O)N[C@@H](Cc1ccc(-c2ccc(OC)nc2)cc1)[C@@H](O)C[C@@H](Cc1ccccc1F)C(=O)N[C@H]1c2cc(F)ccc2OC[C@H]1O)C(C)(C)C [Compound 59]	> 32000		5.8	1.2		0.6	0.9	
CNC(=O)[C@@H](NC(=O)[C@H](Cc1ccccc1F)C[C@H](O)[C@H](Cc1ccc(-c2ccc(N(C)C)nc2)cc1)NC(=O)O[C@H]1CO[C@H]2OCC[C@H]21)C(C)(C)C [Compound 69]		> 32000	26.6		5.7	7		11.6
COC(=O)N[C@H](C(=O)N[C@@H](Cc1ccc(-c2ccc(N(C)C)nc2)cc1)[C@@H](O)C[C@@H](Cc1ccccc1F)C(=O)N[C@H]1[C@H](C)CCC[C@H]1O)C(C)(C)C [Compound 89]	> 32000	> 32000	4.9	1.1	0.8			
